Assay results reported in ChEMBL document CHEMBL5030561, “Discovery of novel aminosaccharide-based sulfonamide derivatives as potential carbonic anhydrase II inhibitors” (Bioorg Med Chem Lett, 2021).
pIC50: −log10 of the molar value.

Molecular target: Carbonic anhydrase 1 (Homo sapiens, UniProt P00915)
Sequence (P00915 whole entry): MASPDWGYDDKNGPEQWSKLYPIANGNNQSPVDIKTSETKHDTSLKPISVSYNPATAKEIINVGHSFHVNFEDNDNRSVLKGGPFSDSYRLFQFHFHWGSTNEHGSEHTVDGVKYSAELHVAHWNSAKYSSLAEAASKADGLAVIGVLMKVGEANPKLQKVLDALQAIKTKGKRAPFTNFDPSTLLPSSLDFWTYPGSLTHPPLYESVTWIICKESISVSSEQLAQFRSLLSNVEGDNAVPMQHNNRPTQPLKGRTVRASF
Test: Inhibition of recombinant human CA1 using 4-nitrophenylacetate as substrate by esterase assay
Conditions: not given
`CO[C@@H]1O[C@H](CNC(=O)c2ccc(S(N)(=O)=O)cc2)[C@@H](O)[C@H](O)[C@@H]1O` showed a pIC50 of 5.54. In the case of `CO[C@@H]1O[C@H](CNC(=O)c2ccc(S(N)(=O)=O)cc2)[C@H](O)[C@H](O)[C@H]1O`, the pIC50 was 5.57. `CO[C@@H]1O[C@H](CNC(=O)c2ccc(S(N)(=O)=O)cc2)[C@@H](O)[C@H](O)[C@H]1O` gave a pIC50 of 5.70. `CO[C@@H]1O[C@H](CNC(=O)c2ccc(S(N)(=O)=O)cc2)[C@@H](O)[C@H](O)[C@H]1N` gave a pIC50 of 5.64.

Tested on: not listed separately
Test: in vitro
Conditions: mouse, liver microsomes
Description: Metabolic stability in mouse liver microsomes assessed as half-life
For `CCO[C@@H]1O[C@H](CNC(=O)c2ccc(S(N)(=O)=O)cc2)[C@@H](O)[C@H](O)[C@H]1O`, the half-life was 59.5 h. `O=C(O)Cc1ccccc1Nc1c(Cl)cccc1Cl` [DICLOFENAC] showed a half-life of 0.667 h. `CCO[C@@H]1O[C@H](CNC(=O)c2ccc(S(N)(=O)=O)cc2)[C@@H](O)[C@H](O)[C@@H]1O` showed a half-life of 61.6 h. Work on `CCO[C@@H]1O[C@H](CNC(=O)c2ccc(S(N)(=O)=O)cc2)[C@@H](O)[C@H](O)[C@H]1N` yielded a half-life of 58.6 h. For `CO[C@@H]1O[C@H](CNC(=O)c2ccc(S(N)(=O)=O)cc2)[C@@H](O)[C@H](O)[C@@H]1O`, the half-life was 57.2 h. `CO[C@@H]1O[C@H](CNC(=O)c2ccc(S(N)(=O)=O)cc2)[C@H](O)[C@H](O)[C@H]1O` gave a half-life of 60.4 h. `CO[C@@H]1O[C@H](CNC(=O)c2ccc(S(N)(=O)=O)cc2)[C@@H](O)[C@H](O)[C@H]1O` gave a half-life of 58.6 h. Compound `CO[C@@H]1O[C@H](CNC(=O)c2ccc(S(N)(=O)=O)cc2)[C@@H](O)[C@H](O)[C@H]1N` has a half-life of 55.8 h.

Tested on: not listed separately
Test: Cytotoxicity against HCEC cells assessed as cell viability at 1% by MTT assay relative to control
Assay type: cell-based
Conditions: human, read-out: Activity
In the case of `CCO[C@@H]1O[C@H](CNC(=O)c2ccc(S(N)(=O)=O)cc2)[C@@H](O)[C@H](O)[C@H]1O`, the viability at 1 % was 76%. With `CCO[C@@H]1O[C@H](CNC(=O)c2ccc(S(N)(=O)=O)cc2)[C@@H](O)[C@H](O)[C@@H]1O` the viability at 1 % was 76%. For `CCO[C@@H]1O[C@H](CNC(=O)c2ccc(S(N)(=O)=O)cc2)[C@@H](O)[C@H](O)[C@H]1N`, the viability at 1 % was 76%. For `CO[C@@H]1O[C@H](CNC(=O)c2ccc(S(N)(=O)=O)cc2)[C@@H](O)[C@H](O)[C@@H]1O`, the viability at 1 % was 76%. Work on `CO[C@@H]1O[C@H](CNC(=O)c2ccc(S(N)(=O)=O)cc2)[C@H](O)[C@H](O)[C@H]1O` yielded a viability at 1 % of 76%. With `CO[C@@H]1O[C@H](CNC(=O)c2ccc(S(N)(=O)=O)cc2)[C@@H](O)[C@H](O)[C@H]1O` the viability at 1 % was 76%. `CO[C@@H]1O[C@H](CNC(=O)c2ccc(S(N)(=O)=O)cc2)[C@@H](O)[C@H](O)[C@H]1N` gave a viability at 1 % of 76%.

Molecular target: Carbonic anhydrase 9 (Homo sapiens, UniProt Q16790)
Test: Inhibition of recombinant human CA9 using 4-nitrophenylacetate as substrate by esterase assay
Conditions: not given
`CCO[C@@H]1O[C@H](CNC(=O)c2ccc(S(N)(=O)=O)cc2)[C@@H](O)[C@H](O)[C@H]1O` gave a pIC50 of 6.72. With `CCO[C@@H]1O[C@H](CNC(=O)c2ccc(S(N)(=O)=O)cc2)[C@@H](O)[C@H](O)[C@@H]1O` the pIC50 was 6.70. Compound `CCO[C@@H]1O[C@H](CNC(=O)c2ccc(S(N)(=O)=O)cc2)[C@@H](O)[C@H](O)[C@H]1N` has a pIC50 of 6.66. With `CO[C@@H]1O[C@H](CNC(=O)c2ccc(S(N)(=O)=O)cc2)[C@@H](O)[C@H](O)[C@@H]1O` the pIC50 was 6.77. `CO[C@@H]1O[C@H](CNC(=O)c2ccc(S(N)(=O)=O)cc2)[C@H](O)[C@H](O)[C@H]1O` gave a pIC50 of 6.70. With `CO[C@@H]1O[C@H](CNC(=O)c2ccc(S(N)(=O)=O)cc2)[C@@H](O)[C@H](O)[C@H]1O` the pIC50 was 6.82. Work on `CO[C@@H]1O[C@H](CNC(=O)c2ccc(S(N)(=O)=O)cc2)[C@@H](O)[C@H](O)[C@H]1N` yielded a pIC50 of 6.72.

Tested on: not listed separately
Test: in vitro
Conditions: mouse, liver microsomes
Remark: another data set of the same source
Description: Metabolic stability in mouse liver microsomes assessed as clearance
`CCO[C@@H]1O[C@H](CNC(=O)c2ccc(S(N)(=O)=O)cc2)[C@@H](O)[C@H](O)[C@H]1O` showed a CLint scaled of 1.54 mL/min/kg. With `O=C(O)Cc1ccccc1Nc1c(Cl)cccc1Cl` [DICLOFENAC] the CLint scaled was 137 mL/min/kg. Compound `CCO[C@@H]1O[C@H](CNC(=O)c2ccc(S(N)(=O)=O)cc2)[C@@H](O)[C@H](O)[C@@H]1O` has a CLint scaled of 1.48 mL/min/kg. With `CCO[C@@H]1O[C@H](CNC(=O)c2ccc(S(N)(=O)=O)cc2)[C@@H](O)[C@H](O)[C@H]1N` the CLint scaled was 1.56 mL/min/kg. Work on `CO[C@@H]1O[C@H](CNC(=O)c2ccc(S(N)(=O)=O)cc2)[C@@H](O)[C@H](O)[C@@H]1O` yielded a CLint scaled of 1.6 mL/min/kg. With `CO[C@@H]1O[C@H](CNC(=O)c2ccc(S(N)(=O)=O)cc2)[C@H](O)[C@H](O)[C@H]1O` the CLint scaled was 1.52 mL/min/kg. With `CO[C@@H]1O[C@H](CNC(=O)c2ccc(S(N)(=O)=O)cc2)[C@@H](O)[C@H](O)[C@H]1O` the CLint scaled was 1.56 mL/min/kg. Work on `CO[C@@H]1O[C@H](CNC(=O)c2ccc(S(N)(=O)=O)cc2)[C@@H](O)[C@H](O)[C@H]1N` yielded a CLint scaled of 1.64 mL/min/kg.

Tested on: not listed separately
Test: Cytotoxicity against HCEC cells assessed as cell viability at 2 % by MTT assay relative to control
Assay type: cell-based
Conditions: human, read-out: Activity
`CCO[C@@H]1O[C@H](CNC(=O)c2ccc(S(N)(=O)=O)cc2)[C@@H](O)[C@H](O)[C@H]1O` gave a viability at 2 % of 71%. `CCO[C@@H]1O[C@H](CNC(=O)c2ccc(S(N)(=O)=O)cc2)[C@@H](O)[C@H](O)[C@@H]1O` showed a viability at 2 % of 71%. With `CCO[C@@H]1O[C@H](CNC(=O)c2ccc(S(N)(=O)=O)cc2)[C@@H](O)[C@H](O)[C@H]1N` the viability at 2 % was 71%. In the case of `CO[C@@H]1O[C@H](CNC(=O)c2ccc(S(N)(=O)=O)cc2)[C@@H](O)[C@H](O)[C@@H]1O`, the viability at 2 % was 71%. Compound `CO[C@@H]1O[C@H](CNC(=O)c2ccc(S(N)(=O)=O)cc2)[C@H](O)[C@H](O)[C@H]1O` has a viability at 2 % of 71%. `CO[C@@H]1O[C@H](CNC(=O)c2ccc(S(N)(=O)=O)cc2)[C@@H](O)[C@H](O)[C@H]1O` gave a viability at 2 % of 71%. Compound `CO[C@@H]1O[C@H](CNC(=O)c2ccc(S(N)(=O)=O)cc2)[C@@H](O)[C@H](O)[C@H]1N` has a viability at 2 % of 71%.

Tested on: not listed separately
Test: Solubility of compound in water
Assay type: physicochemical
Conditions: buffer
`CCO[C@@H]1O[C@H](CNC(=O)c2ccc(S(N)(=O)=O)cc2)[C@@H](O)[C@H](O)[C@H]1O` gave a solubility of 2.2%. In the case of `CCO[C@@H]1O[C@H](CNC(=O)c2ccc(S(N)(=O)=O)cc2)[C@@H](O)[C@H](O)[C@@H]1O`, the solubility was 2%. For `CCO[C@@H]1O[C@H](CNC(=O)c2ccc(S(N)(=O)=O)cc2)[C@@H](O)[C@H](O)[C@H]1N`, the solubility was 2.3%. Work on `CO[C@@H]1O[C@H](CNC(=O)c2ccc(S(N)(=O)=O)cc2)[C@@H](O)[C@H](O)[C@@H]1O` yielded a solubility of 2.3%. `CO[C@@H]1O[C@H](CNC(=O)c2ccc(S(N)(=O)=O)cc2)[C@H](O)[C@H](O)[C@H]1O` showed a solubility of 2.1%. With `CO[C@@H]1O[C@H](CNC(=O)c2ccc(S(N)(=O)=O)cc2)[C@@H](O)[C@H](O)[C@H]1O` the solubility was 2.5%. Work on `CO[C@@H]1O[C@H](CNC(=O)c2ccc(S(N)(=O)=O)cc2)[C@@H](O)[C@H](O)[C@H]1N` yielded a solubility of 2.5%.

Species on record: Homo sapiens
Test: Selectivity ratio of IC50 for inhibition of recombinant human CA1 to IC50 for inhibition of recombinant human CA2 using 4-nitrophenylacetate as substrate by esterase assay
Conditions: not given
Work on `CO[C@@H]1O[C@H](CNC(=O)c2ccc(S(N)(=O)=O)cc2)[C@@H](O)[C@H](O)[C@@H]1O` yielded a Selectivity ratio of 41. In the case of `CO[C@@H]1O[C@H](CNC(=O)c2ccc(S(N)(=O)=O)cc2)[C@H](O)[C@H](O)[C@H]1O`, the Selectivity ratio was 45. Compound `CO[C@@H]1O[C@H](CNC(=O)c2ccc(S(N)(=O)=O)cc2)[C@@H](O)[C@H](O)[C@H]1O` has a Selectivity ratio of 20. Work on `CO[C@@H]1O[C@H](CNC(=O)c2ccc(S(N)(=O)=O)cc2)[C@@H](O)[C@H](O)[C@H]1N` yielded a Selectivity ratio of 19.

Molecular target: Carbonic anhydrase 2 (Homo sapiens, UniProt P00918)
Test: not given
Conditions: not given
`CO[C@@H]1O[C@H](CNC(=O)c2ccc(S(N)(=O)=O)cc2)[C@@H](O)[C@H](O)[C@@H]1O` showed a pIC50 of 7.15. For `CO[C@@H]1O[C@H](CNC(=O)c2ccc(S(N)(=O)=O)cc2)[C@H](O)[C@H](O)[C@H]1O`, the pIC50 was 7.22. `CO[C@@H]1O[C@H](CNC(=O)c2ccc(S(N)(=O)=O)cc2)[C@@H](O)[C@H](O)[C@H]1O` gave a pIC50 of 7.00. In the case of `CO[C@@H]1O[C@H](CNC(=O)c2ccc(S(N)(=O)=O)cc2)[C@@H](O)[C@H](O)[C@H]1N`, the pIC50 was 6.92.

Species on record: Homo sapiens
Test: Selectivity ratio of IC50 for inhibition of recombinant human CA9 to IC50 for inhibition of recombinant CA2 using 4-nitrophenylacetate as substrate by esterase assay
Conditions: not given
`CO[C@@H]1O[C@H](CNC(=O)c2ccc(S(N)(=O)=O)cc2)[C@@H](O)[C@H](O)[C@@H]1O` gave a Selectivity ratio of 2.4. For `CO[C@@H]1O[C@H](CNC(=O)c2ccc(S(N)(=O)=O)cc2)[C@H](O)[C@H](O)[C@H]1O`, the Selectivity ratio was 3.3. In the case of `CO[C@@H]1O[C@H](CNC(=O)c2ccc(S(N)(=O)=O)cc2)[C@@H](O)[C@H](O)[C@H]1O`, the Selectivity ratio was 1.5. Work on `CO[C@@H]1O[C@H](CNC(=O)c2ccc(S(N)(=O)=O)cc2)[C@@H](O)[C@H](O)[C@H]1N` yielded a Selectivity ratio of 1.6.
